Data from US20230374038A1, “MODULATORS OF CYSTIC FIBROSIS TRANSMEMBRANE CONDUCTANCE REGULATOR” (VERTEX PHARMACEUTICALS INCORPORATED, priority 2020, published 2023).
Values joined by “and” are separate entries in the source; they are usually repeats but may differ in a detail not shown here. Equal entries are not always repeated. Where two headings read alike, the source gives them in different places.

Experiments:
[1] = amide bond
CFTR = CFTR (Homo sapiens, UniProt P13569); experiment: Membrane Potential Dye, Enteroid Assay B; assay type: cell-based; settings: for EC50: read-out: Ent. B EC50
Chain of CFTR (P13569 with tags, fused parts or gaps DEL508-508): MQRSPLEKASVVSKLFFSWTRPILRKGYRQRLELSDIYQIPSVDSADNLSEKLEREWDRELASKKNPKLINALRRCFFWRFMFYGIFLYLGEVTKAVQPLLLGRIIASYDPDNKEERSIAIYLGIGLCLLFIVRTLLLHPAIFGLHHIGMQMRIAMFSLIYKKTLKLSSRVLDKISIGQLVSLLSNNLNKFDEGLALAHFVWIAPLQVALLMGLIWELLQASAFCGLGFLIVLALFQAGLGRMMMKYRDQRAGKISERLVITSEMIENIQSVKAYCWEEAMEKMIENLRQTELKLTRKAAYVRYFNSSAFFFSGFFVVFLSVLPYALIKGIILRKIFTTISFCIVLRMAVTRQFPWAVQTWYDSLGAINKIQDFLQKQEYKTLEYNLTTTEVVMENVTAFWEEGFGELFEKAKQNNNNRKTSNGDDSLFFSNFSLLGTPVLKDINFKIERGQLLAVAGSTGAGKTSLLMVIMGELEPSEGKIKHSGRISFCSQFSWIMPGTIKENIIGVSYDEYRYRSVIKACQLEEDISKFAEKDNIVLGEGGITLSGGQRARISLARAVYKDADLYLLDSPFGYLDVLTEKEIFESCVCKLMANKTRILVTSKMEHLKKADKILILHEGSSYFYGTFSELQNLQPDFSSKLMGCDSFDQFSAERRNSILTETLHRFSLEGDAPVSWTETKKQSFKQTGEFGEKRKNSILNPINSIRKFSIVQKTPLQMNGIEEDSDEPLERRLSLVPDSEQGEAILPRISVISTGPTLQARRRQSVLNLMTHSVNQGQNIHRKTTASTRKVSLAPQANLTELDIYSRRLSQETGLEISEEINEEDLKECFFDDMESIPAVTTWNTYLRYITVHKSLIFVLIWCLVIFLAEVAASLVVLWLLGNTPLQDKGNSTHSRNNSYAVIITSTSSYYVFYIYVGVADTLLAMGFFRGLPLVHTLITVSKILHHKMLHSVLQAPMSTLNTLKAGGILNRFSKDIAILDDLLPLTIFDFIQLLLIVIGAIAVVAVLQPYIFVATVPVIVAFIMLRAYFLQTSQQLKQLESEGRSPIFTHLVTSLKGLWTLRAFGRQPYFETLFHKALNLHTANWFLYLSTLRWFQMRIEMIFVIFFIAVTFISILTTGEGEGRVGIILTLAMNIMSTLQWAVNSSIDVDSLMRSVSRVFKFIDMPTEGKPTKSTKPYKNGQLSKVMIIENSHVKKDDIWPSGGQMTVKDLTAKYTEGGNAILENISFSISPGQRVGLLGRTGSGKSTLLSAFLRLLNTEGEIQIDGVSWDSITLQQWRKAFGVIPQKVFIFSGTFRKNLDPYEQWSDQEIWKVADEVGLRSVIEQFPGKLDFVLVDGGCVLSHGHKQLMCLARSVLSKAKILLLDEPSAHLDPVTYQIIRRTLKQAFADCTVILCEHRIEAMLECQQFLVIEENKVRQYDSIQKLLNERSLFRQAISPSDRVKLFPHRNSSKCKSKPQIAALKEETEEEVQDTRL
Procedure, shortened: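 Membrane-potential fluorescence read over 15 min after chloride-free stimulation (forskolin 10 μM, IBMX 100 μM, Compound III 300 nM), with CaCCinh-A01 and Chicago Sky Blue present. Enteroids had 18-24 h compound exposure at 37 °C; activity given as % of the triple-combination corrector/potentiator reference response.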

Compound: Cc1cccc(C)c1-c1nc2nc(c1C)OC[C@@H](CC(C)(C)C)N(C1CC3(C1)CC(C(C)(C)O)C3)C(=O)c1cccc(c1)S(=O)(=O)N2 (stereo partly shown)
- ring closure, yield after HPLC ([1]; from Cc1cccc(C)c1-c1nc(NS(=O)(=O)c2cccc(C(=O)O)c2)nc(OC[C@@H](CC(C)(C)C)NC2CC3(C2)CC(C(C)(C)O)C3)c1C, 13-membered ring, HATU/DIEA, DMF, 28.7 mM, 16.0 h): 6%

Compound: Cc1cccc(CC(C)(C)C)c1-c1nc2nc(c1C)OC[C@@H](CC(C)(C)C)N(Cc1ncc(N3CCC(C)(C)C3)cn1)C(=O)c1cccc(c1)S(=O)(=O)N2
- ring closure, yield after HPLC ([1]; from Cc1cccc(CC(C)(C)C)c1-c1nc(NS(=O)(=O)c2cccc(C(=O)O)c2)nc(OC[C@@H](CC(C)(C)C)NCc2ncc(N3CCC(C)(C)C3)cn2)c1C, 13-membered ring, CDMT/NMM, DMF, 11.0 mM, 16.0 h, 2 steps): 11%
- ring closure, yield after HPLC ([1]; from Cc1cccc(CC(C)(C)C)c1-c1nc(NS(=O)(=O)c2cccc(C(=O)O)c2)nc(OC[C@@H](CC(C)(C)C)NCc2ncc(N3CCC(C)(C)C3)cn2)c1C, 13-membered ring, CDMT/NMM, DMF, 12.0 mM, 16.0 h, 2 steps): 7%

Compound: Cc1cccc(C)c1-c1nc2nc(c1C)OC[C@@H](CC(C)(C)C(F)(F)F)N(C1CC3(CCN(C(=O)OC(C)(C)C)CC3)C1)C(=O)c1cccc(c1)S(=O)(=O)N2 [Compound 156, tert-Butyl 2-[(11R)-6-(2,6-dimethylphenyl)-7-methyl-2,2,13-trioxo-11-(3,3,3-trifluoro-2,2-dimethylpropyl)-9-oxa-2λ^6-thia-3,5,12,19-tetraazatricyclo[12.3.1.14,8]nonadeca-1(17),4(19),5,7,14(18),15-hexaen-12-yl]-7-azaspiro[3.5]nonane-7-carboxylate]
- ring closure, yield after HPLC ([1]; from Cc1cccc(C)c1-c1nc(NS(=O)(=O)c2cccc(C(=O)O)c2)nc(OC[C@@H](CC(C)(C)C(F)(F)F)NC2CC3(CCN(C(=O)OC(C)(C)C)CC3)C2)c1C, 13-membered ring, HATU/DIEA, DMF, 23.2 mM, 29.0 h): 22%
- Ent. B Max Activity (CFTR): +++ (+++ is >60%)
- EC50 (CFTR): < 1000 nM

Compound: (5P,11R)-6-(2-cyclopropyl-6-methyl-phenyl)-11-(2,2-dimethylpropyl)-7-methyl-12-[(5-morpholinopyrimidin-2-yl)methyl]-2,2-dioxo-9-oxa-2^6-thia-3,5,12,19-tetrazatricyclo[12.3.1.14,8]nonadeca-1(18),4(19),5,7,14,16-hexaen-13-one
- ring closure, yield after HPLC ([1]; 13-membered ring, CDMT/NMM, DMF, 122.0 mM): 25%

Compound: Cc1cccc(C)c1-c1nc2nc(c1C)OC[C@@H](C)N(C1CC3(CC(NC(=O)OC(C)(C)C)C3)C1)C(=O)c1cccc(c1)S(=O)(=O)N2 (stereo partly drawn) [Compound 116, tert-Butyl N-{6-[(11R)-6-(2,6-dimethylphenyl)-7,11-dimethyl-2,2,13-trioxo-9-oxa-2λ^6-thia-3,5,12,19-tetraazatricyclo[12.3.1.14,8]nonadeca-1(18),4,6,8(19),14,16-hexaen-12-yl]spiro[3.3]heptan-2-yl}carbamate]
- ring closure, yield after HPLC ([1]; from Cc1cccc(C)c1-c1nc(NS(=O)(=O)c2cccc(C(=O)O)c2)nc(OC[C@@H](C)NC2CC3(CC(NC(=O)OC(C)(C)C)C3)C2)c1C, 13-membered ring, HATU/TEA, DMF, 26.7 mM, 1.0 h): 57%
- Ent. B Max Activity (CFTR): ++ (++ is 30-60%)
- EC50 (CFTR): < 1000 nM

Compound: Cc1cccc(C)c1-c1nc2nc(c1C)O[C@H](c1ccc(C(C)(C)C)cc1)[C@@H](C)NC(=O)c1cccc(c1)S(=O)(=O)N2 [Compound 172, (10R,11R)-10-(4-tert-Butylphenyl)-6-(2,6-dimethylphenyl)-7,11-dimethyl-2,2-dioxo-9-oxa-2λ^6-thia-3,5,12,19-tetrazatricyclo[12.3.1.14,8]nonadeca-1(18),4(19),5,7,14,16-hexaen-13-one]
- ring closure, yield after HPLC ([1]; 13-membered ring, NaOtBu then HATU, THF/DMF, 77.0 mM, 2 steps): 8%
- Ent. B Max Activity (CFTR): +++ (+++ is >60%)
- EC50 (CFTR): < 1000 nM

Compound: Cc1cccc(C)c1-c1nc2nc(c1C(F)(F)F)OC[C@@H](CC(C)C)N(C1CC3(CC3)C1)C(=O)c1cccc(c1)S(=O)(=O)N2 [Compound 162, (11R)-6-(2,6-dimethylphenyl)-11-isobutyl-2,2-dioxo-12-spiro[2.3]hexan-5-yl-7-(trifluoromethyl)-9-oxa-2λ^6-thia-3,5,12,19-tetrazatricyclo[12.3.1.14,8]nonadeca-1(18),4(19),5,7,14,16-hexaen-13-one]
- ring closure, yield after HPLC ([1]; from Cc1cccc(C)c1-c1nc(NS(=O)(=O)c2cccc(C(=O)O)c2)nc(OC[C@@H](CC(C)C)NC2CC3(CC3)C2)c1C(F)(F)F, 13-membered ring, HATU/TEA, DMF, 11.7 mM, 16.0 h): 69%
- Ent. B Max Activity (CFTR): +++ (+++ is >60%)
- EC50 (CFTR): < 1000 nM

Compound: CCc1c2nc(nc1-c1c(C)cccc1C)NS(=O)(=O)c1cccc(c1)C(=O)N(C1CC3(CC3)C1)[C@H](CC(C)C)CO2 [Compound 160, (11R)-6-(2,6-Dimethylphenyl)-7-ethyl-11-isobutyl-2,2-dioxo-12-spiro[2.3]hexan-5-yl-9-oxa-2λ^6-thia-3,5,12,19-tetrazatricyclo[12.3.1.14,8]nonadeca-1(17),4(19),5,7,14(18),15-hexaen-13-one]
- ring closure, yield after HPLC ([1]; from CCc1c(OC[C@@H](CC(C)C)NC2CC3(CC3)C2)nc(NS(=O)(=O)c2cccc(C(=O)O)c2)nc1-c1c(C)cccc1C, 13-membered ring, HATU/TEA, DMF, 31.1 mM, 3.0 h): 60%
- Ent. B Max Activity (CFTR): +++ (+++ is >60%)
- EC50 (CFTR): < 1000 nM

Compound: (5M,11R)-11-(2,2-dimethylpropyl)-7-methyl-6-[2-methyl-6-(3-methylbutyl)phenyl]-12-{[5-(propan-2-yloxy)pyrimidin-2-yl]methyl}-9-oxa-2λ^6-thia-3,5,12,19-tetraazatricyclo[12.3.1.14,8] nonadeca-1(17),4(19),5,7,14(18),15-hexaene-2,2,13-trione
- ring closure, yield after HPLC ([1]; 13-membered ring, CDMT/NMM, DMF, 47.4 mM): 40%

Compound: COc1c2nc(nc1-c1c(C)cccc1C)NS(=O)(=O)c1cccc(c1)C(=O)N(C1CC3(CCN(C(=O)OC(C)(C)C)CC3)C1)[C@H](CC(C)C)CO2
- ring closure, yield after HPLC ([1]; 13-membered ring, HATU/DIEA, DMF): 22%

Compound: (5M,11R)-11-(2,2-dimethylpropyl)-12-({5-[(2,2-dimethylpropyl)(methyl)amino]pyrimidin-2-yl}methyl)-7-methyl-6-[2-methyl-6-(2-methylpropyl)phenyl]-9-oxa-2λ^6-thia-3,5,12,19-tetraazatricyclo[12.3.1.14,8]nonadeca-1(17),4(19),5,7,14(18),15-hexaene-2,2,13-trione
- ring closure, yield after HPLC ([1]; 13-membered ring, CDMT/NMM, DMF, 2 steps): 20%

Compound: Cc1cccc(CC(C)C)c1-c1nc2nc(c1C(F)(F)F)OC[C@@H](CC(C)(C)C)N(Cc1ncc(N3CCOCC3)cn1)C(=O)c1cccc(c1)S(=O)(=O)N2
- ring closure, yield after HPLC ([1]; from Cc1cccc(CC(C)C)c1-c1nc(NS(=O)(=O)c2cccc(C(=O)O)c2)nc(OC[C@@H](CC(C)(C)C)NCc2ncc(N3CCOCC3)cn2)c1C(F)(F)F, 13-membered ring, CDMT/NMM, DMF, 92.0 mM, 4.0 h): 37%

Compound: Cc1cccc(C)c1-c1nc2nc(c1C)OC[C@@H](CC(C)C)N(C1CC(OC(C)C)C1)C(=O)c1cccc(c1)S(=O)(=O)N2 (single isomer, unassigned; diastereomer 1)
- ring closure, yield after HPLC ([1]; from Cc1cccc(C)c1-c1nc(NS(=O)(=O)c2cccc(C(=O)O)c2)nc(OC[C@@H](CC(C)C)NC2CC(OC(C)C)C2)c1C, 13-membered ring, HATU/DIEA, DMF, 25.0 °C, 2 steps): 9%

Compound: Cc1ccc2cc1Oc1cc(-c3c(C)cccc3C)nc(n1)NS(=O)(=O)c1cccc(c1)NC2=O
- ring closure, yield after HPLC ([1]; from Cc1ccc(C(=O)O)cc1Oc1cc(-c2c(C)cccc2C)nc(NS(=O)(=O)c2cccc(N)c2)n1, 14-membered ring, HATU/DIEA, DMF, 78.0 mM, 25.0 °C, 0.083 h, 3 steps): 26%

Compound: Cc1cccc(C)c1-c1nc2nc(c1C)OC[C@@H](CC(C)(C)C)N(C1CC3(CC(NC(=O)OC(C)(C)C)C3)C1)C(=O)c1cccc(c1)S(=O)(=O)N2 (stereo partly shown)
- ring closure, yield after HPLC ([1]; from Cc1cccc(C)c1-c1nc(NS(=O)(=O)c2cccc(C(=O)O)c2)nc(OC[C@@H](CC(C)(C)C)NC2CC3(CC(NC(=O)OC(C)(C)C)C3)C2)c1C, 13-membered ring, HATU/DIEA, DMF, 14.3 mM, 72.0 h): 62%

Compound: Cc1cccc(C(C)C)c1-c1nc2nc(c1C)OC[C@@H](CC(C)(C)C)N(Cc1ncc(N3CCOCC3)cn1)C(=O)c1cccc(c1)S(=O)(=O)N2
- ring closure, yield after HPLC ([1]; from Cc1cccc(C(C)C)c1-c1nc(NS(=O)(=O)c2cccc(C(=O)O)c2)nc(OC[C@@H](CC(C)(C)C)NCc2ncc(N3CCOCC3)cn2)c1C, 13-membered ring, CDMT/NMM, DMF, 55.0 mM, 19.0 h): 18% and 11%

Compound: Cc1cccc(CC2CCOCC2)c1-c1nc2nc(c1C)OC[C@@H](CC(C)(C)C)N(Cc1ncc(N3CCOCC3)cn1)C(=O)c1cccc(c1)S(=O)(=O)N2
- ring closure, yield after HPLC ([1]; from Cc1cccc(CC2CCOCC2)c1-c1nc(NS(=O)(=O)c2cccc(C(=O)O)c2)nc(OC[C@@H](CC(C)(C)C)NCc2ncc(N3CCOCC3)cn2)c1C, 13-membered ring, CDMT/NMM, DMF, 41.0 mM, 19.0 h): 25%

Compound: (5P,11R)-11-(2,2-dimethylpropyl)-12-({5-[(2,2-dimethylpropyl)(methyl)amino]pyrimidin-2-yl}methyl)-7-methyl-6-[2-methyl-6-(2-methylpropyl)phenyl]-9-oxa-2λ^6-thia-3,5,12,19-tetraazatricyclo[12.3.1.14,8]nonadeca-1(17),4(19),5,7,14(18),15-hexaene-2,2,13-trione
- ring closure, yield after HPLC ([1]; 13-membered ring, CDMT/NMM, DMF, 19.0 mM, 2 steps): 11%

Compound: Cc1cccc(COC(C)C)c1-c1nc2nc(c1C)OC[C@@H](CC(C)(C)C)N(Cc1ncc(N3CCC(C)(C)C3)cn1)C(=O)c1cccc(c1)S(=O)(=O)N2
- ring closure, yield after HPLC ([1]; from Cc1cccc(COC(C)C)c1-c1nc(NS(=O)(=O)c2cccc(C(=O)O)c2)nc(OC[C@@H](CC(C)(C)C)NCc2ncc(N3CCC(C)(C)C3)cn2)c1C, 13-membered ring, CDMT/NMM, DMF, 11.0 mM, 5.0 h, 2 steps): 13%

Compound: (5P,11R)-11-(2,2-dimethylpropyl)-7-methyl-6-[2-methyl-6-(3-methylbutyl)phenyl]-12-{[5-(propan-2-yloxy)pyrimidin-2-yl]methyl}-9-oxa-2λ^6-thia-3,5,12,19-tetraazatricyclo[12.3.1.14,8]nonadeca-1(17),4(19),5,7,14(18),15-hexaene-2,2,13-trione
- ring closure, yield after HPLC ([1]; 13-membered ring, CDMT/NMM, DMF, 33.8 mM): 45%
